Measured values taken from patent publication US20100267561A1, “HERBICIDAL PYRIDAZINONE DERIVATIVES” (priority 2007, published 2010).

Key:
Assay type in all cases: in vivo
[1] = test system: windgrass (Apera spica-venti); assay: Test C pre-/postemergence plant response; settings: Preemergence
In short: (§1)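 Greenhouse-type test under controlled conditions: soil-surface preemergence treatment of sown seed and foliar postemergence treatment of seedlings 2–18 cm tall. Each compound was in non-phytotoxic solvent with surfactant. Response was rated by eye after 15–25 days, 0 to 100, against controls.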

[2] = test system: wild mustard (Sinapis arvensis); assay: Test C pre-/postemergence plant response; settings: Preemergence
In short: as §1

[3] = test system: green foxtail (Setaria viridis); assay: Test C pre-/postemergence plant response; settings: Preemergence
In short: as §1

[4] = test system: blackgrass (Alopecurus myosuroides); assay: Test C pre-/postemergence plant response; settings: Preemergence
In short: as §1

[5] = test system: pigweed (Amaranthus retroflexus); assay: Test C pre-/postemergence plant response; settings: Preemergence
In short: as §1

[6] = test system: downy bromegrass (Bromus tectorum); assay: Test C pre-/postemergence plant response; settings: Preemergence
In short: as §1

[7] = test system: canarygrass (Phalaris minor); assay: Test C pre-/postemergence plant response; settings: Preemergence
In short: as §1

[8] = test system: Italian ryegrass (Lolium multiflorum); assay: Test C pre-/postemergence plant response; settings: Preemergence
In short: as §1

[9] = test system: annual bluegrass (Poa annua); assay: Test C pre-/postemergence plant response; settings: Preemergence
In short: as §1

[10] = test system: wild oat (Avena fatua); assay: Test C pre-/postemergence plant response; settings: Preemergence
In short: as §1

[11] = test system: spring barley (Hordeum vulgare); assay: Test C pre-/postemergence plant response; settings: Preemergence
In short: as §1

[12] = test system: spring wheat (Triticum aestivum); assay: Test C pre-/postemergence plant response; settings: Preemergence
In short: as §1

[13] = test system: winter wheat (Triticum aestivum); assay: Test C pre-/postemergence plant response; settings: Preemergence
In short: as §1

[14] = test system: barnyardgrass (Echinochloa crus-galli); assay: Test B flooded paddy test plant response
In short: (§2)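 Rice, umbrella sedge, ducksalad and barnyardgrass at 2-leaf stage; pots flooded to 3 cm, compounds applied into paddy water, depth held throughout. Greenhouse 13 to 15 days, then visual rating vs untreated controls on 0–100 scale (0 no effect, 100 complete control); dash means no test result.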

[15] = test system: umbrella sedge (Cyperus difformis); assay: Test B flooded paddy test plant response
In short: as §2

[16] = test system: ducksalad (Heteranthera limosa); assay: Test B flooded paddy test plant response
In short: as §2

[17] = 8 g ai/ha, scale 0 to 100 (0 no effect, 100 complete control)
[18] = 16 g ai/ha, scale 0 to 100 (0 no effect, 100 complete control)
[19] = 31 g ai/ha, scale 0 to 100 (0 no effect, 100 complete control)
[20] = 62 g ai/ha, scale 0 to 100, 0 no effect, 100 complete control
[21] = Flood (flooded paddy test), 62 g ai/ha, scale 0 to 100, 0 no effect, 100 complete control
[22] = Flood (flooded paddy test), 125 g ai/ha, scale 0 to 100, 0 no effect, 100 complete control
[23] = Flood (flooded paddy test), 250 g ai/ha, scale 0 to 100, 0 no effect, 100 complete control
[24] = Flood, 31 g ai/ha, scale 0 to 100

Cc1cc(-c2ccc(Cl)cc2)nn1-c1c(OS(=O)(=O)c2cccc3ccccc23)cnn(C)c1=O [Compound 47]
90: Plant response rating, Blackgrass [4, 19] | Plant response rating, Canarygrass [7, 20]
20: Plant response rating, Ryegrass, Italian [8, 18] | Plant response rating, Bluegrass [9, 18] | Plant response rating, Barley, Spring [11, 18] | Plant response rating, Wheat, Winter [13, 18]
75: Plant response rating, Oat, Wild [10, 19] | Plant response rating, Barley, Spring [11, 20]
35: Plant response rating, Bromegrass, Downy [6, 19] | Plant response rating, Bromegrass, Downy [6, 20] | Plant response rating, Barley, Spring [11, 19] | Plant response rating, Wheat, Winter [13, 19]
80: Plant response rating, Foxtail, Green [3, 19] | Plant response rating, Ryegrass, Italian [8, 19] | Plant response rating, Oat, Wild [10, 20]
100: Plant response rating, Foxtail, Green [3, 20] | Plant response rating, Blackgrass [4, 20] | Plant response rating, Ryegrass, Italian [8, 20]
15: Plant response rating, Foxtail, Green [3, 18] | Plant response rating, Bromegrass, Downy [6, 18] | Plant response rating, Wheat, Spring [12, 18]
0: Plant response rating, Windgrass [1, 17] | Plant response rating, Windgrass [1, 18] | Plant response rating, Mustard, Wild [2, 17] | Plant response rating, Mustard, Wild [2, 18] | Plant response rating, Mustard, Wild [2, 19] | Plant response rating, Mustard, Wild [2, 20] | Plant response rating, Foxtail, Green [3, 17] | Plant response rating, Blackgrass [4, 17] | Plant response rating, Blackgrass [4, 18] | Plant response rating, Pigweed [5, 17] | Plant response rating, Pigweed [5, 18] | Plant response rating, Pigweed [5, 19] | Plant response rating, Pigweed [5, 20] | Plant response rating, Bromegrass, Downy [6, 17] | Plant response rating, Canarygrass [7, 17] | Plant response rating, Canarygrass [7, 18] | Plant response rating, Ryegrass, Italian [8, 17] | Plant response rating, Bluegrass [9, 17] | Plant response rating, Oat, Wild [10, 17] | Plant response rating, Oat, Wild [10, 18] | Plant response rating, Wheat, Spring [12, 17] | Plant response rating, Wheat, Winter [13, 17] | Plant response rating, Barnyardgrass [14, 21] | Plant response rating, Barnyardgrass [14, 22] | Plant response rating, Barnyardgrass [14, 23] | Plant response rating, Barnyardgrass [14, 24] | Plant response rating, Sedge, Umbrella [15, 21] | Plant response rating, Sedge, Umbrella [15, 22] | Plant response rating, Sedge, Umbrella [15, 23] | Plant response rating, Sedge, Umbrella [15, 24] | Plant response rating, Ducksalad [16, 21] | Plant response rating, Ducksalad [16, 22] | Plant response rating, Ducksalad [16, 23] | Plant response rating, Ducksalad [16, 24]
30: Plant response rating, Windgrass [1, 19]
50: Plant response rating, Canarygrass [7, 19] | Plant response rating, Bluegrass [9, 19] | Plant response rating, Bluegrass [9, 20]
25: Plant response rating, Wheat, Spring [12, 19]
10: Plant response rating, Barley, Spring [11, 17]
65: Plant response rating, Windgrass [1, 20] | Plant response rating, Wheat, Spring [12, 20] | Plant response rating, Wheat, Winter [13, 20]

Cc1cc(-c2ccc(Cl)cc2)nn1-c1c(OC(=O)c2cccs2)cnn(C)c1=O [Compound 52]
60: Plant response rating, Blackgrass [4, 18] | Plant response rating, Oat, Wild [10, 19] | Plant response rating, Oat, Wild [10, 20] | Plant response rating, Barley, Spring [11, 20]
100: Plant response rating, Foxtail, Green [3, 18] | Plant response rating, Foxtail, Green [3, 19] | Plant response rating, Foxtail, Green [3, 20] | Plant response rating, Ryegrass, Italian [8, 20]
80: Plant response rating, Bromegrass, Downy [6, 20]
70: Plant response rating, Windgrass [1, 19] | Plant response rating, Windgrass [1, 20]
10: Plant response rating, Bluegrass [9, 19] | Plant response rating, Bluegrass [9, 20]
40: Plant response rating, Blackgrass [4, 17] | Plant response rating, Oat, Wild [10, 18] | Plant response rating, Barley, Spring [11, 19] | Plant response rating, Wheat, Winter [13, 19]
15: Plant response rating, Bromegrass, Downy [6, 19] | Plant response rating, Barnyardgrass [14, 21]
90: Plant response rating, Canarygrass [7, 19] | Plant response rating, Ryegrass, Italian [8, 19] | Plant response rating, Wheat, Spring [12, 20]
95: Plant response rating, Blackgrass [4, 19] | Plant response rating, Blackgrass [4, 20] | Plant response rating, Canarygrass [7, 20]
0: Plant response rating, Windgrass [1, 17] | Plant response rating, Windgrass [1, 18] | Plant response rating, Mustard, Wild [2, 17] | Plant response rating, Mustard, Wild [2, 18] | Plant response rating, Mustard, Wild [2, 19] | Plant response rating, Mustard, Wild [2, 20] | Plant response rating, Pigweed [5, 17] | Plant response rating, Pigweed [5, 18] | Plant response rating, Pigweed [5, 19] | Plant response rating, Pigweed [5, 20] | Plant response rating, Bromegrass, Downy [6, 17] | Plant response rating, Bromegrass, Downy [6, 18] | Plant response rating, Canarygrass [7, 17] | Plant response rating, Ryegrass, Italian [8, 17] | Plant response rating, Bluegrass [9, 17] | Plant response rating, Bluegrass [9, 18] | Plant response rating, Oat, Wild [10, 17] | Plant response rating, Barley, Spring [11, 17] | Plant response rating, Barley, Spring [11, 18] | Plant response rating, Wheat, Spring [12, 17] | Plant response rating, Wheat, Spring [12, 18] | Plant response rating, Wheat, Winter [13, 17] | Plant response rating, Wheat, Winter [13, 18] | Plant response rating, Sedge, Umbrella [15, 21] | Plant response rating, Sedge, Umbrella [15, 23] | Plant response rating, Ducksalad [16, 21] | Plant response rating, Ducksalad [16, 23]
65: Plant response rating, Canarygrass [7, 18] | Plant response rating, Ryegrass, Italian [8, 18] | Plant response rating, Wheat, Spring [12, 19] | Plant response rating, Wheat, Winter [13, 20]
75: Plant response rating, Foxtail, Green [3, 17] | Plant response rating, Barnyardgrass [14, 23]
